Reference: patent US12559750B2, “Methods and compositions for treatment of polycystic kidney disease” (Regulus Therapeutics Inc., priority 2021, dated 2026)
e = 2'-O-(2-methoxyethyl) (MOE); k = constrained ethyl (cEt); d = 2'-deoxy (DNA); m = 2'-O-methyl; f = 2'-fluoro

Columns and labels:
AMPA-R = assay: [3H]AMPA radioligand binding assay on rat brain synaptic membranes; conditions: for % Inhibition @ Concentration 100 uM: Table 8 (3′-terminal nucleobase/sugar variants); for % Inhibition @ Concentration 0.1 uM: Table 8, 0.1 uM; for % Inhibition @ Concentration 1 uM: Table 8, 1 uM; for % Inhibition @ Concentration 10 uM: Table 8, 10 uM;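 on all read-outs here: competition binding in which test compounds at rising concentrations displace [3H]AMPA from AMPA-R on rat brain synaptic membranes, with reduced bound radioligand as read-out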
Experimental: The activity of anti-miR-17 compounds was evaluated in a radioligand binding assay which measured the binding of the [^3H] AMPA ligand to the AMPA-R present on rat brain synaptic membranes, in the presence of increasing concentrations of anti-miR-17 compound, anti-miR-17 compounds with affinity for the AMPA-R will bind to and compete with the binding of the [^3H] AMPA ligand.
5.0 nM of the ligand [^3H] AMPA, 1.0 mM of the non-specific ligand L-Glutamic acid, and anti-miR compound at uM concentrations were incubated with synaptic membranes prepared from Wistar rat cerebral cortex for 90 minutes.
The compounds were tested in the radioligand binding assay described herein, to determine the ability of the anti-miR-17 compounds to and compete with the binding of the [3H] AMPA ligand.

AMPA-R (GluA1/GluA4) = molecular target: T1, AMPA-R (GluA1/GluA4) (Homo sapiens, UniProt P42261+P48058); assay: Manual whole-cell patch clamp, ChanTest GluA1/GluA4 EZCells; assay type: cell-based
T1 construct: host or cells: ChanTest GluA1/GluA4 EZCells
T1 sequence (P42261 19-906): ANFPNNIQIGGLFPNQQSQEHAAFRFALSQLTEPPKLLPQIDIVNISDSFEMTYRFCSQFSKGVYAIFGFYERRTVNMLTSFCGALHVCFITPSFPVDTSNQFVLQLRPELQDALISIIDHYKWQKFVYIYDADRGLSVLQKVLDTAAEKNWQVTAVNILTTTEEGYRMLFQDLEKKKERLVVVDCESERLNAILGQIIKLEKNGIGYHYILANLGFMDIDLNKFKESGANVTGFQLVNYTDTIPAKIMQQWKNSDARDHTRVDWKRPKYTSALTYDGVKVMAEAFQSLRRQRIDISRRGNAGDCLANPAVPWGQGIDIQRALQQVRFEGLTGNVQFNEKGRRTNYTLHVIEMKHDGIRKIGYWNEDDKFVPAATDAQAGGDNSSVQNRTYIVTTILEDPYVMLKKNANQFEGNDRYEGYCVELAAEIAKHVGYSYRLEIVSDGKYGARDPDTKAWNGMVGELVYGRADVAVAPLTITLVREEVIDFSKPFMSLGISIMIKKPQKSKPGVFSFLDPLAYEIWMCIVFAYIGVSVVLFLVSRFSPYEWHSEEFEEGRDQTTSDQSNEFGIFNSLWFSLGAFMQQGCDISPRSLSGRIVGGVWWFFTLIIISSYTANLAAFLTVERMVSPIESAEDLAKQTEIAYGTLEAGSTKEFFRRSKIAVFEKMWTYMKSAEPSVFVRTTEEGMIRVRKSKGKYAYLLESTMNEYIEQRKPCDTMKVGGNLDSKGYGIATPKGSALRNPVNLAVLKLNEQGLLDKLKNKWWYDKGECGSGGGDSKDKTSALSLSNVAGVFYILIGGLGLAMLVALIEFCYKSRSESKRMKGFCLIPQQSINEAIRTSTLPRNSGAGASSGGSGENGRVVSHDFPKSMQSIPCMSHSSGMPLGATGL
T1 sequence (P48058 21-902): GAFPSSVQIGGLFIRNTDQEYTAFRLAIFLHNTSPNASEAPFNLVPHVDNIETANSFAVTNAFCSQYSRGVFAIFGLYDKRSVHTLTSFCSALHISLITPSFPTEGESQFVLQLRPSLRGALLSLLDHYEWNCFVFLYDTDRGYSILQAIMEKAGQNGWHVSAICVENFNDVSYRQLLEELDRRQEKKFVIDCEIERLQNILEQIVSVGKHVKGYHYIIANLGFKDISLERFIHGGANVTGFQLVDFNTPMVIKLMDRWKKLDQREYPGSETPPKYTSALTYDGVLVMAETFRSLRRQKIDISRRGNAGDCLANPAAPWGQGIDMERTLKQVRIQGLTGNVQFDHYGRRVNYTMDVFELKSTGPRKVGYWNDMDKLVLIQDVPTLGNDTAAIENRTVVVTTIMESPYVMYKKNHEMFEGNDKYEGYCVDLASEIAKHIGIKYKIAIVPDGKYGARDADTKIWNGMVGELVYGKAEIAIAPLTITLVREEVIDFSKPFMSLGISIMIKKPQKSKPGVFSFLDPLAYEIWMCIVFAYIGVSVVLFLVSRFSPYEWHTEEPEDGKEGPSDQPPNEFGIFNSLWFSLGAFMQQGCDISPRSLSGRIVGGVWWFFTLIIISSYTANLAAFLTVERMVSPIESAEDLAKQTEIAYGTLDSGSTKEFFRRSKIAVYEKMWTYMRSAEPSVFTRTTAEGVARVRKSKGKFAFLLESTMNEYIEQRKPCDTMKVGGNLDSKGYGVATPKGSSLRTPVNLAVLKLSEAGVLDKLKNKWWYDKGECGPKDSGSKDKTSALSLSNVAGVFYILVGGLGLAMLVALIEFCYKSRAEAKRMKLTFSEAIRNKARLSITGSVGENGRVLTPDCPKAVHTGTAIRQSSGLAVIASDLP
Experimental: To evaluate functional antagonism of anti-miR-17 oligonucleotides towards the AMPA-R, certain oligonucleotides were tested using the manual whole-cell patch clamp technique, which records membrane currents as a measure of AMPA-R activity.
Manual whole-cell patch clamp studies were performed by Metrion Biosciences (Cambridge, UK). Whole-cell voltage clamp experiments were performed at room temperature (18-21° C.) using an EPC10 patch clamp amplifier using Patchmaster software (HEKA Elektronik). Glass patch pipettes were fabricated from borosilicate glass capillaries (Harvard Apparatus) to resistances between 1.4 and 2.5 MΩ. Membrane currents were recorded using the whole-cell patch clamp technique. ChanTest® GluA1/GluA4 EZCells were clamped at a holding potential of −80 mV and membrane currents elicited by 10 μM(S)-AMPA delivered using a VC38 perfusion system (ALA Scientific Instruments). The […] current amplitude values were measured with each application of 10 μM(S)-AMPA. The fractional change of current amplitude produced by each concentration of compound was calculated relative to the control current (pre-compound) and expressed as percentage change (% inhibition) for each cell. RGLS4326 was tested in a separate study from all other compounds in Table 6.

C57Bl/6J male mice = assay: ICV maximum tolerated dose study, Study 1; assay type: in vivo, mouse; conditions: for Mortality/total number of mice: 7-day
Experimental: Compounds (RG-NG-1017, RGLS4326, RG-NG-1001) were evaluated in a pilot maximum tolerated dose (MTD) study (discussed below). RG-NG-1017, RGLS4326 and RG-NG-1001 were initially evaluated at 4 dose-levels each. RG-NG-1017 was included for evaluation as a non-AMPA-R binding compound, as compared to RGLS4326 and RG-NG-1001, which bind AMPA-R. C57Bl/6J male mice (Jackson Laboratories), age 6-7 weeks, were used in this study. Mice were assigned randomly to treatment groups, and the study was blinded. Animals were allowed to acclimate for no less than 5 days and housed on a 12 hr light/dark cycle (lights on 7:00 AM). No more than 4 mice were house in each cage in a ventilated cage rack system. The diet consisted of standard rodent chow and water ad libitum.
The following parameters were used for this study: • 1. Route(s) of administration: intracerebroventricular (ICV) dosing of RG-NG-1017, RG-NG-1001, RGLS4326 • 2. Dose Volume(s): 4 μL • 3. Formulation(s): vehicle, Ca^2+ and Mg^2+ free dPBS • 4. Dose Frequency: Once • 5. Study duration: 8 Days • 6. Number of Groups: 3 • 7. Number of animals per group: (2-4 each group) • 8. Total number of animals: […]
For the ICV administration, mice were anesthetized and positioned for injections. The skin over the skull was incised, and a small hole was made in the skull above the target using a microdrill. The stereotactic coordinates were anteroposterior (AP), −0.4 mm; mediolateral (ML), +/−1.0-1.5 mm; dorsoventral (DV), −3.0 mm from the bregma for injection into both the right and left lateral cerebral ventricles (Hironaka et al, 2015). Animals were injected unilaterally with 4 μl into the right lateral cerebral ventricle. Compounds were injected over 1-2 min, and the needle was left in place for 0.5-1 min prior to withdrawal. The incision was closed with sutures, wound clips, or VetBond.
Following ICV treatment (Day 0), animals were monitored for 7 days in which daily health checks, body weight, and mortality was recorded. On Day 7, brain and kidney were collected and fixed (10% formalin) and stored pending histology.

mice = conditions: in vivo
Experimental: Each compound was tested in a single dose at 2000 mg/kg, and at escalating doses (100, 450, and 2000 mg/kg).

miR-17 [1] = assay: miR-17 luciferase sensor assay in HeLa cells; assay type: cell-based; conditions: for EC50: HeLa cells, 18- to 24-hour transfection
Experimental: The in vitro potency of certain compounds was evaluated using a miR-17 luciferase sensor assay which uses a luciferase reporter vector for miR-17, with two fully complementary miR-17 binding sites in tandem in the 3′-UTR of the luciferase gene. HeLa cells were co-transfected with the luciferase reporter vector and an exogenous miR-17-expression vector that acted to repress the luciferase signal.

miR-17 [2] = assay: miR-17 PD-Sig in mouse kidney cell lines; assay type: cell-based
Experimental: The activity of certain compounds was evaluated using a mouse miR-17 Pharmacodynamic-Signature (miR-17 PD-Sig), which consists of the expression of 18 unique miR-17 target genes normalized by six reference housekeeping genes, to provide an unbiased and comprehensive assessment of miR-17 activity. The mouse miR-17 PD-Sig score was the calculated average of the 18 genes' individual log 2 fold changes (normalized by six housekeeping genes) compared to mock transfection (Lee et al., Nat. Commun., 2019, 10, 4148).
The PD-Sig for RGLS4326 in mIMCD3 cells (77.2, indicated by “*”) was not generated in this experiment; the value in Table 14 is that reported by Lee et al., Nat. Commun., 2019, 10, 4148. Blank cells in the table indicate that a compound was not tested in a particular cell line.

miR-17 [3] = assay: microRNA polysome shift assay (miPSA) in kidney of wild type mice; assay type: in vivo, mouse; set-up: scale not given here; conditions: seven days later
Experimental: In vivo potency was evaluated using the microRNA polysome shift assay (miPSA). This assay was used to determine the extent to which compounds directly engage the miR-17 target in the kidney in normal and PKD mice. The miPSA relies on the principle that active miRNAs bind to their mRNA targets in translationally active high molecular weight (HMW) polysomes, whereas the inhibited miRNAs reside in the low MW (LMW) polysomes. Treatment with anti-miR results in a shift of the microRNA from HMW polysomes to LMW polysomes. Thus, the miPSA provides a direct measurement of microRNA target engagement by a complementary anti-miR (Androsavich et al., Nucleic Acids Research, 2015, 44: e13).
Wild type mice were administered a single dose of 0.3 mg/kg, 3 mg/kg, or 30 mg/kg. Kidney tissue was collected seven days later and subjected to the miPSA. The mean displacement score for each treatment is shown in Table 15 (PBS, n=17; RGLS4326 30 mg/kg, n=10; all other treatments, n=4-5). The tested oligonucleotides displaced miR-17 from translationally active polysome (as measured by miPSA) in normal mouse kidneys.

[4] = test system: KspCre/Pkd1F/RC (Pkd1-F/RC) mice; assay: Efficacy in Pkd1-F/RC mouse model of ADPKD; assay type: in vivo; conditions: 20 mg/kg SC on days 8, 10, 12, 15 of age
Experimental: Mice were sacrificed at 18 days of age, and kidney weight, body weight, cyst index, serum creatinine level, and blood urea nitrogen (BUN) level were measured. BUN level is a marker of kidney function. A higher BUN level correlates with poorer kidney function, thus a reduction in BUN level is an indicator of reduced kidney injury and damage and improved function. Statistical significance was calculated by one-way ANOVA with Dunnett's multiple correction.

Pcy/DBA mice = assay: Efficacy in Pcy/DBA mouse model of PKD, alone and with tolvaptan; assay type: in vivo; conditions: 0.3% Tolvaptan in chow alone (vehicle SC);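 further: dosing began at 6 weeks of age, with endpoints collected 7 days after the last dose and PBS-injected wild-type DBA/2J mice as the normal reference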
Experimental: The efficacy of RG-NG-1015 was also evaluated in the Pcy/DBA mouse model of PKD alone and in combination with tolvaptan.
As outlined in FIGS. 6A and 6B, five groups of male Pcy/DBA mice (n=13 per treatment group) were treated subcutaneously with PBS or RG-NG-1015 at 25, 5, 1, or 0.2 mg/kg once every two weeks (Q2W). Two groups of male Pcy/DBA mice (n=13 per group) were also treated with RG-NG-1015 at 50 mg/kg once every four weeks (Q4W) or at 12.5 mg/kg once weekly (QW). Another four groups of male Pcy/DBA mice (n=13 per group) were treated subcutaneously with PBS or RG-NG-1015 at 25, 5, or 1 mg/kg Q2W in combination with tolvaptan at 0.3% (w/w chow) ad libitum. A group of male WT-BDA/2J mice received subcutaneous injections of PBS Q2W was included in the study as a normal range reference. Mice were randomized into treatment groups at 5 weeks of age, and treatment started at 6 weeks of age for 17 weeks and were sacrificed 7 days after the final treatment. Kidney weight, body weight, kidney cyst index, urine Ngal-to-Creatinine ratio (Ngal/Cr) were measured.

| Compound | IC50 (AMPA-R; Experiment #1) | % Inhibition @ 0.1 uM (AMPA-R; Experiment #1, 0.1 uM) | % Inhibition @ 1 uM (AMPA-R; Experiment #1, 1 uM) | % Inhibition @ 10 uM (AMPA-R; Experiment #1, 10 uM) | % Inhibition @ 100 uM (AMPA-R; Experiment #1, 100 uM) | IC50 (AMPA-R; Experiment #2) | % Inhibition @ 0.1 uM (AMPA-R; Experiment #2, 0.1 uM) | % Inhibition @ 1 uM (AMPA-R; Experiment #2, 1 uM) | % Inhibition @ 10 uM (AMPA-R; Experiment #2, 10 uM) | % Inhibition @ 100 uM (AMPA-R; Experiment #2, 100 uM) | IC50 (AMPA-R; Experiment #3) | % Inhibition @ 0.1 uM (AMPA-R; Experiment #3, 0.1 uM) | IC50 (AMPA-R; Table 8) | % Inhibition @ Concentration 100 uM (AMPA-R) | % Inhibition @ Concentration 0.1 uM (AMPA-R) | % Inhibition @ Concentration 1 uM (AMPA-R) | % Inhibition @ Concentration 10 uM (AMPA-R) | % Inhibition on membrane currents evoked with 10 uM (s)-AMPA (Mean ± SD) (AMPA-R (GluA1/GluA4); 0.3 uM compound) | % Inhibition on membrane currents evoked with 10 uM (s)-AMPA (Mean ± SD) (AMPA-R (GluA1/GluA4); 3 uM compound) | Log2FC (37.5 nM) (miR-17 [1]) | also measured |
| --- | --- | --- | --- | --- | --- | --- | --- | --- | --- | --- | --- | --- | --- | --- | --- | --- | --- | --- | --- | --- | --- |
| ASGSCSASCSUSUSUSGS [RG-NG-1001] | 170 nM | 41.1% | 76.2% | 89.1% | 91.3% | 190 nM | 42.2% | 68.3% | 90.1% | 93.5% | 100 nM | 59.4% | 150 nM | 102.9% | 41.9% | 81.3% | 99.3% | 80.5 ± 6.3% | 88.8 ± 4.5% |  | % Inhibition @ 1 uM (AMPA-R; Experiment #3, 1 uM): 84.8%; % Inhibition @ 10 uM (AMPA-R; Experiment #3, 10 uM): 94.6%; % Inhibition @ 100 uM (AMPA-R; Experiment #3, 100 uM): 96.6%; Mortality/total number of mice (C57Bl/6J male mice; single ICV 2.5 μg): 1/3; Mortality/total number of mice (C57Bl/6J male mice; single ICV 5 μg): 4/4; Mortality/total number of mice (C57Bl/6J male mice; single ICV 10 μg): 3/4; Mortality/total number of mice (C57Bl/6J male mice; single ICV 25 μg): 3/3; Mortality/total number of mice (C57Bl/6J male mice; single ICV 50 μg): 3/3; Mortality/total number of mice (C57Bl/6J male mice; single ICV 100 μg): 2/2; Mortality/total number of mice (C57Bl/6J male mice; single ICV 300 μg): 2/2; Mortality/total number of mice (C57Bl/6J male mice; single ICV 600 μg): 2/2; MTD (C57Bl/6J male mice; single ICV, C57Bl/6J mice, predicted from the study): under 2.5 μg; CNS toxicity in high-dose mouse toxicity studies (mice): ataxia, lethargy |
| GSCEAECETEGSTEADASGSCMAFCFUFUMUSGS (GCACTGTAAGCACUUUG; sugars from the 5' end keeeekedkkmfffmkk, backbone and methylation of C not given here) [RG-NG-1032] |  |  |  |  |  |  |  |  |  |  |  |  | 1170 nM | 92% | 24.3% | 43.8% | 78.3% |  |  | 3.85 | EC50 (miR-17 [1]): < 1 nM |
| ASGSCMAFCFUFUMUSCS [RG-NG-1016] |  |  |  |  |  | > 100000 nM | 4.7% | 10.4% | 12.3% | 5.9% |  |  |  |  |  |  |  | 16.0 ± 6.2% | 27.1 ± 9.8% | 2.32 | functional antagonism towards AMPA-R relative to RGLS4326 (AMPA-R (GluA1/GluA4); in words): reduced functional antagonism towards AMPA-R; EC50 (miR-17 [1]): 20.3 nM; EC50 (miR-17 [2]; mIMCD3, mouse, Normal): 146 nM; miPSA Displacement Score, Mean (miR-17 [3]; single dose 3 mg/kg): 2.263; miPSA Displacement Score, Mean (miR-17 [3]; single dose 30 mg/kg): 1.134; miPSA Displacement Score, Mean (miR-17 [3]; single dose 0.3 m/kg): 1.892; CNS toxicity in high-dose mouse toxicity studies (mice): no CNS-toxicity were observed; CNS-related findings noted (mice; mouse, sc, 2000 mg/kg): No |
| ASCSAMAFUFGFCMASCS [RG5124, reference compound] | > 100000 nM | 0.4% | 12.9% | −3.7% | −5.1% | > 100000 nM | −1.2% | 1.6% | −4.2% | 7.2% | > 100000 nM | 5.1% | ≥ 100000 nM | 10.1% | −8.6% | −0.6% | 4.4% | 14.1 ± 7.2% | 42.1 ± 9.4% | 0.40 | % Inhibition @ 1 uM (AMPA-R; Experiment #3, 1 uM): 9.3%; % Inhibition @ 10 uM (AMPA-R; Experiment #3, 10 uM): 16.1%; % Inhibition @ 100 uM (AMPA-R; Experiment #3, 100 uM): 23%; EC50 (miR-17 [2]; D52B5, mouse, PKD): 507 nM; miPSA Displacement Score, Mean (miR-17 [3]; single dose 30 mg/kg): 0.5935; BW/KW Ratio, Mean Difference vs. PBS [4]: 26.14; Serum BUN, Mean Difference vs. PBS [4]: +8.138; Serum Creatine, Mean Difference vs. PBS [4]: +0.07838; Mean BW/KW Ratio ([4]; sacrificed at 18 days): 91.75; Mean Serum BUN ([4]; sacrificed at 18 days): 50.61; Mean Serum Creatine ([4]; sacrificed at 18 days): 0.2403 |
| Cc1ccccc1C(=O)Nc1ccc(C(=O)N2CCCC(O)c3cc(Cl)ccc32)c(C)c1 (centres unmarked) [Tolvaptan, tolvaptan, reference compound] |  |  |  |  |  |  |  |  |  |  |  |  |  |  |  |  |  |  |  |  | Mean Cystic Area (Pcy/DBA mice): 44.68%; Mean Cystic Area % Inhibition (Pcy/DBA mice): 29.2%; Mean KW/BW (Pcy/DBA mice): 59.3 mg/g; Mean KW/BW % Inhibition (Pcy/DBA mice): 44.9%; Mean Urine Ngal/Cr (Pcy/DBA mice): 8.73 mg/mg; Mean Urine Ngal/Cr % Inhibition (Pcy/DBA mice): 62.1% |
